The results in this text go back to ChEMBL document CHEMBL1909046, “DrugMatrix in vitro pharmacology data”.

Test [1] has as its target Receptor tyrosine-protein kinase erbB-2 (Homo sapiens, UniProt P04626). The format is cell-based. Conditions: insect cells.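 Further: inhibition of HER2 kinase enzyme activity, measured with Poly(Glu:Tyr) as the phosphorylation substrate; in other assays of this panel Not Active means under 50% inhibition at 10 µM.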
Test [2] concerns the target T1, 5-hydroxytryptamine receptor 1A (Rattus norvegicus, UniProt P19327). Further: in other assays of this panel Not Active means under 50% inhibition at 10 µM.
T1 sequence (P19327 whole entry): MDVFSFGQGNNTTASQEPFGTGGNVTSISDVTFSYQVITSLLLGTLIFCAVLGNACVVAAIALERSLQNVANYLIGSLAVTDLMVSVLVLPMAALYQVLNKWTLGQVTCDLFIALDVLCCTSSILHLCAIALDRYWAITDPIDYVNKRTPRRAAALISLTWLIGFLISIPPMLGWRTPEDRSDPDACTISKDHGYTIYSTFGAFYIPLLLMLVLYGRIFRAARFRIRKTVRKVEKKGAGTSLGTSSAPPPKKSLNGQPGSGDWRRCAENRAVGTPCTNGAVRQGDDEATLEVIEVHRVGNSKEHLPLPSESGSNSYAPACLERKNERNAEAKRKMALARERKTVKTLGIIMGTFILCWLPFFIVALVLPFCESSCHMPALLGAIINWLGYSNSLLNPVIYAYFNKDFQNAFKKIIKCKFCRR
Format: cell membranes, CHO-K1, Membrane.

A short description of test [3]: DRUGMATRIX: Phosphodiesterase PDE4 enzyme inhibition (substrate: [3H]cAMP + cAMP). Conditions: u-937; Not Active = under 50% inhibition at 10 µM.
In test [4] the target is Mitogen-activated protein kinase 3 (Homo sapiens, UniProt P27361). The test can be described thus: DRUGMATRIX: Protein Serine/Threonine Kinase, ERK1 enzyme inhibition (substrate: Myelin Basic Protein). Also on record: species or system Escherichia coli. Conditions: Not Active = under 50% inhibition at 10 µM.
Mitogen-activated protein kinase 3, sequence (P27361 whole entry): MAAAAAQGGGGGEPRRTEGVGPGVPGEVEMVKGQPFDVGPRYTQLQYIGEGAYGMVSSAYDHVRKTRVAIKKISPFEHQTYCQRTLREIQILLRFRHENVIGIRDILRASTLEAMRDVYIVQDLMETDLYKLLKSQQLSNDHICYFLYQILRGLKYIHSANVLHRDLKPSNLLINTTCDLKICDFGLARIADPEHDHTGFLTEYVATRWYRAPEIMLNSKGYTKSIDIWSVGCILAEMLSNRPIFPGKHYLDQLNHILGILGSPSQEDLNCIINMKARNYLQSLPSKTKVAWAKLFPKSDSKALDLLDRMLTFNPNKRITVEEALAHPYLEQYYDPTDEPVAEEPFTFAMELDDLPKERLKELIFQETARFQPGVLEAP
Test [5] concerns the target T2, Receptor-type tyrosine-protein phosphatase C (Homo sapiens, UniProt P08575).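 Further: inhibition of CD45 enzyme activity measured using DiFMUP as substrate; in other assays of this panel Not Active means under 50% inhibition at 10 µM.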
T2 sequence (P08575 whole entry): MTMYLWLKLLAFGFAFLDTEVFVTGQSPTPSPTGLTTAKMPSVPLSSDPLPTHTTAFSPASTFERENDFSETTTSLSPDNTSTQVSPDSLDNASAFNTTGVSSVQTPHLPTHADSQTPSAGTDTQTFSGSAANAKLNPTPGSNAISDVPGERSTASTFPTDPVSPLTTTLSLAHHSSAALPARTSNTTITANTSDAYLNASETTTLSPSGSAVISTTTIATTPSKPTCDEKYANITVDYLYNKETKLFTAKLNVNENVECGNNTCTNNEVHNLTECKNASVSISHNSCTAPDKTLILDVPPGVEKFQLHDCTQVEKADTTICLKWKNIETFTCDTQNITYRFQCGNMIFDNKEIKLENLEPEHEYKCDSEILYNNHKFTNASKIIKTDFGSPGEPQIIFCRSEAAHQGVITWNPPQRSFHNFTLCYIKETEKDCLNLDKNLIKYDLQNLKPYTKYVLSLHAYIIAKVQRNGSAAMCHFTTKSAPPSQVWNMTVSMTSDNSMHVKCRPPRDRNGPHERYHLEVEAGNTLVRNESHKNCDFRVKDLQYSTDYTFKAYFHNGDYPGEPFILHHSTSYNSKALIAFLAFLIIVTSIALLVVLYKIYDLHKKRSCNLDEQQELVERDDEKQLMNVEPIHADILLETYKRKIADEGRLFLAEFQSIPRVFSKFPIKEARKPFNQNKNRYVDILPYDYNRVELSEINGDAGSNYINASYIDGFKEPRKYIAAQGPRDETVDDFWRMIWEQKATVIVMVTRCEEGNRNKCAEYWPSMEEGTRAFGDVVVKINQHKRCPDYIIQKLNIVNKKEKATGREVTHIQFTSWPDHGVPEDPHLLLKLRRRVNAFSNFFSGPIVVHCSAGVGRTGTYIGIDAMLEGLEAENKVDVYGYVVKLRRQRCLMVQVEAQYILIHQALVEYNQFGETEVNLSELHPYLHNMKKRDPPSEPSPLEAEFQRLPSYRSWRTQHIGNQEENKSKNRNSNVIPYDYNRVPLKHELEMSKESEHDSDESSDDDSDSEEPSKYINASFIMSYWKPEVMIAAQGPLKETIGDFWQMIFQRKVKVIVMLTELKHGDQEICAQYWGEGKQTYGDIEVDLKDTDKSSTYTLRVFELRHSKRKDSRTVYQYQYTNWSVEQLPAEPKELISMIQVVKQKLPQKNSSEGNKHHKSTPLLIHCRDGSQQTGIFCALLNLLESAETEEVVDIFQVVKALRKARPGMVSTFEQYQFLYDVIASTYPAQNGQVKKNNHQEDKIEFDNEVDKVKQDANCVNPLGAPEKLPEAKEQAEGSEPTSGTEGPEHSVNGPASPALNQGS
Set-up: species or system Escherichia coli.

The nature of test [6]: DRUGMATRIX: Tumor Necrosis Factor (TNF), Non-Selective radioligand binding (ligand: [125I] TNF-alpha). The format is cell membranes, Membrane. Conditions: u-937; Not Active = under 50% inhibition at 10 µM.
The target of test [7] is cGMP-specific 3',5'-cyclic phosphodiesterase (Homo sapiens, UniProt O76074). In words: DRUGMATRIX: Phosphodiesterase PDE5 enzyme inhibition (substrate: [3H]cGMP + cGMP). Conditions: platelet; Not Active = under 50% inhibition at 10 µM. The format is tissue-based, Platelet.

For `CO[C@@]12[C@H](COC(N)=O)C3=C(C(=O)C(C)=C(N)C3=O)N1C[C@@H]1N[C@@H]12` [MITOMYCIN], the IC50 result in test [1], in test [2] (cho-k1), in test [3], in test [4], in test [5] and in test [6] was “Not Active” throughout. Besides, in test [7], the IC50 result is given as “Not Active”. Moreover, the Ki entry in test [3] and in test [6] was “Not Active” each time.
As for `Cc1ccc(S(=O)(=O)NC(=O)NN2CCCCCC2)cc1` [TOLAZAMIDE], the IC50 result in test [1], in test [2] (cho-k1), in test [3], in test [4], in test [5] and in test [6] was “Not Active” in each case. Besides, the IC50 entry in test [7] is listed as “Not Active”. The inhibitory constant (Ki) entry in test [3] and in test [6] was “Not Active” in each case.
On to `CCC(C)(C)C(=O)O[C@H]1C[C@@H](C)C=C2C=C[C@H](C)[C@H](CC[C@@H]3C[C@@H](O)CC(=O)O3)[C@H]21` [SIMVASTATIN], for which the IC50 result in test [1], in test [2] (cho-k1), in test [3], in test [4], in test [5] and in test [6] was “Not Active” in each case. Moreover, the IC50 result in test [7] is “Not Active”. Besides, the Ki entry in test [3] and in test [6] was “Not Active” each time.
On to LEAD(IV) ACETATE, for which the IC50 result in test [1], in test [2] (cho-k1), in test [3], in test [4], in test [5] and in test [6] was “Not Active” each time. In addition, the 50% inhibitory concentration (IC50) entry in test [7] is reported as “Not Active”. In addition, the Ki result in test [1], in test [2] (cho-k1), in test [3], in test [4], in test [5] and in test [6] was “Not Active” in each case. The inhibition constant (Ki) entry in test [7] is reported as “Not Active”.
`CCN1CCCC1CNC(=O)c1cc(S(N)(=O)=O)ccc1OC` (stereo not drawn) [SULPIRIDE]: the half-inhibitory concentration (IC50) result in test [1], in test [2] (cho-k1), in test [3], in test [4], in test [5] and in test [6] was “Not Active” throughout. Besides, the IC50 entry in test [7] is recorded as “Not Active”. The Ki entry in test [3] and in test [6] was “Not Active” each time.
Regarding `CC[C@H](C)C(=O)O[C@H]1CCC=C2C=C[C@H](C)[C@H](CC[C@@H]3C[C@@H](O)CC(=O)O3)[C@H]21` [MEVASTATIN], the IC50 entry in test [1], in test [2] (cho-k1), in test [3], in test [4], in test [5] and in test [6] was “Not Active” throughout. Further, in test [7], the IC50 result is “Not Active”. The Ki entry in test [3] and in test [6] was “Not Active” each time.
`CN1C[C@H](CNC(=O)OCc2ccccc2)C[C@@H]2c3cccc4c3c(cn4C)C[C@H]21` [METERGOLINE]: the IC50 result in test [1] is “Not Active”; in test [2] (read-out: IC50), 6.17 nM; in test [3], “Not Active”; in test [4] it was “Not Active”; in test [5], “Not Active”; in test [6] it was “Not Active”. The 50% inhibitory concentration (IC50) result in test [7] was “Not Active”. Moreover, the Ki in test [2] (read-out: Ki) is 3.53 nM; in test [3] it was “Not Active”; in test [6], “Not Active”.
For the compound `Oc1ccc(/C=C/c2cc(O)cc(O)c2)cc1` [RESVERATROL], the IC50 entry in test [1], in test [2] (cho-k1), in test [3], in test [4], in test [5] and in test [6] was “Not Active” throughout. Moreover, the IC50 entry in test [7] is on record as “Not Active”. For the same compound, the Ki result in test [3] and in test [6] was “Not Active” in each case.
